Reference: patent publication US20160130592A1, “Soybean Transformation Using HPPD Inhibitors as Selection Agents” (Bayer CropScience AG, priority 2010, published 2016)

Experiments:
untransformed cells = test: Selection with DKN as selectable agent in Shoot Induction medium, cotyledonary node method; type: cell-based, soybean; details: DKN 2 ppm in Shoot Induction medium
Procedure: The cotyledonary node method used for transforming soybean has been described by Zhang et al., 1999, Clemente et al. 2000, Xing et al. 2000.
After washing, the explants are placed (5 per plate) on the Shoot Initiation Medium, inclined at 45°, with the cotyledonary node area imbedded in the medium and upwards. The Shoot Initiation step lasts 1 month (24° C. 16/8 photoperiod) with a transfer after 15 days in which the hypocotyl is eliminated to keep only the differentiating area and the cotyledon.
1×B5 major salts, 1×B5 minor salts, 28 mg/L Ferrous, 38 mg/L NaEDTA, 30 g/L Sucrose, 0.59 g/L MES, and 7 g/L Noble agar (pH 5.7). Filter sterilized 1×B5 vitamins, BAP (1.11 mg/L), Timentin (50 mg/L), Cefotaxime (200 mg/L), Vancomycin (50 mg/L) and the selection agent are added to this medium after autoclaving.
Transgenic events (cv Thorne) were generated for construct carrying hppd gene alone (e.i. pFCO117) or in combination with pdh gene (e.i. pFCO48), using DKN as selection agent, as described in example 1. Selection agent DKN (diketonitrile) was added in SI (Shoot Induction medium) at a final concentration of 2 ppm and for about 4 week. When explants were transferred to SE (Shoot Elongation medium), selection was removed. […] Visual selectable marker dramatically decreases selection time, as untransformed material can be identified and eliminated in as little as 4 weeks after transformation.

untransformed tissue = test: Visual selection with IFT as selectable agent; type: cell-based, soybean; details: FIG. 1; transformed material becomes green
Description: FIG. 1: Visual selection with IFT as selectable agent.

[1] = about 4 weeks, cv Thorne, in vitro

| SMILES | effect on chlorophyll synthesis (untransformed cells; [1]) | lethality for untransformed cells (untransformed cells; [1]) | phenotype of untransformed tissue (untransformed cells; transformed material becomes green) | phenotype of untransformed tissue (untransformed tissue) |
| --- | --- | --- | --- | --- |
| CS(=O)(=O)c1cc(C(F)(F)F)ccc1C(=O)C(C#N)C(=O)C1CC1 (stereo not shown) [DKN, 2-cyano-3-cyclopropyl-1-(2-methylsulphonyl-4-trifluoromethylphenyl)-propane-1,3-dione] | prevents chlorophyll synthesis | does not kill untransformed cells | white, elongated shoots |  |
| CS(=O)(=O)c1cc(C(F)(F)F)ccc1C(=O)c1cnoc1C1CC1 [IFT, (5-cyclopropyl-4-isoxazolyl)[2-(methylsulfonyl)-4-(trifluoromethyl)phenyl]methanone] |  |  |  | white, elongated shoots |
